Where two headings read alike, the source gives them in different places.
What was measured:
[1] = test system: ZBTB16 mRNA; experiment: Quantitative PCR of the P4 responsive gene ZBTB16 in T47D cells; assay type: cell-based, human; details: 100 μM, 24 h
[2] = test system: MPA-induced mammary tumors; details: rats; cited from earlier work
[3] = Sulforhodamine B; assay type: cell-based; details: human
[4] = test system: prolactin (PRL) mRNA; experiment: Quantitative PCR of decidualization gene PRL in HESC; assay type: cell-based, human; details: 100 μM, 48 h, with E2 and 8-Br-cAMP
[5] = molecular target: T1, progesterone receptor (PR) (Homo sapiens, UniProt P06401); experiment: PRE-luciferase reporter assay in T47D cells; assay type: cell-based; details: for PRE-luciferase Fold increase (10μM): compound 10 μM, over DMSO; for dose-dependent activation of PRE-luciferase: five increasing doses; for compound-induced PRE-luciferase activity in the presence of RU486: with 1 μM RU486, T47D cells
T1 sequence (P06401 679-933 limits assumed): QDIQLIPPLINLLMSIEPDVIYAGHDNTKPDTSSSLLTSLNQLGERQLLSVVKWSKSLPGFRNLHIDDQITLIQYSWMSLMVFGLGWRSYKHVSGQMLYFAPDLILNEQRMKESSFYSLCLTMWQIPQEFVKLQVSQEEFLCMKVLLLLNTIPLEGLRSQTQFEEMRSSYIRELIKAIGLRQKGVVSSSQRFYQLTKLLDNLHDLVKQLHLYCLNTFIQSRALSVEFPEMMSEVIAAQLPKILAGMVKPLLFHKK

[6] = molecular target: T2, progesterone receptor ligand binding domain (PR-LBD-GST) (Homo sapiens, UniProt P06401); experiment: Progesterone receptor polarization competitive binding assay
T2 sequence (P06401 675-933): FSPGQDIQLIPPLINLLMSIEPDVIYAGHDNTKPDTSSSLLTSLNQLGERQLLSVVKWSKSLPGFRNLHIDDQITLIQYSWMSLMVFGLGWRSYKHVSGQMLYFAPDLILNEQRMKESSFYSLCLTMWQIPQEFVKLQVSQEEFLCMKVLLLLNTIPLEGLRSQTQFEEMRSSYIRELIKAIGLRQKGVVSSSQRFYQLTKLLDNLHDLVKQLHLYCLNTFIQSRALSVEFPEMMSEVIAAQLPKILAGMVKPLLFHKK

[7] = test system: T47D cells; experiment: Sulforhodamine B; assay type: cell-based
[8] = test system: ovarian cancer; details: kaempferol intake, human observational studies; cited from earlier work
[9] = test system: PRA and PRB protein; experiment: Western blot of PRA and PRB expression in T47D cells; assay type: cell-based, human; details: P4 1 μM, flavonoids 100 μM, 1.5 h or 16 h
[10] = molecular target: T3, progesterone receptor (PR) (Homo sapiens, UniProt P06401); experiment: PRE-luciferase reporter assay in human endometrial stromal cells; assay type: cell-based; details: for dose-dependent activation of PRE-luciferase: HESC; for compound-induced PRE-luciferase in the presence of RU486: compound 20 μM with 1 μM RU486, HESC
T3 sequence (P06401 1-933): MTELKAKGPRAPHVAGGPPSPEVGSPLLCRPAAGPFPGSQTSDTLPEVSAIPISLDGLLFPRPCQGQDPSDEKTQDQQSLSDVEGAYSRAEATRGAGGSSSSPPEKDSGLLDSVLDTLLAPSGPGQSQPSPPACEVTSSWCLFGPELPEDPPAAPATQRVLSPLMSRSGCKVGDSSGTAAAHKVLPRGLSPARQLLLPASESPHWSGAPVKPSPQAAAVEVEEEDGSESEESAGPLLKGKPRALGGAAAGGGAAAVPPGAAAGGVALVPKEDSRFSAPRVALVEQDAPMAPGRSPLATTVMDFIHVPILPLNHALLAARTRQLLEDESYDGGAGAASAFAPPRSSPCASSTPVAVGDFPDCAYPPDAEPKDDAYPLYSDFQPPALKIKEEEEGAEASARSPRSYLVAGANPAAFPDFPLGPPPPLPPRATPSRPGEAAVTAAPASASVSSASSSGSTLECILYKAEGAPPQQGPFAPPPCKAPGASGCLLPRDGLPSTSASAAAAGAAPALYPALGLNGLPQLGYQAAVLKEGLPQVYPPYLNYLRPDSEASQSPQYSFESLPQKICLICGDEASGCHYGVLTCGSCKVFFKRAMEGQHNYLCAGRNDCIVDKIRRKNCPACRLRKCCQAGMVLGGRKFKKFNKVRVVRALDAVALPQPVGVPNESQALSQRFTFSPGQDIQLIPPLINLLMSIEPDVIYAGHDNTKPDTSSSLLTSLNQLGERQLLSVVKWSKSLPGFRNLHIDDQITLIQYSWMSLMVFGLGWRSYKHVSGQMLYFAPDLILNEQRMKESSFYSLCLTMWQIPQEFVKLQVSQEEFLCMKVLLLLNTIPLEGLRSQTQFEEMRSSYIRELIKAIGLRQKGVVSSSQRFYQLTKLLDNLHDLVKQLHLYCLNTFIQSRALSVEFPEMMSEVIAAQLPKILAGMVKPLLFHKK

[11] = molecular target: T1, progesterone receptor (PR); experiment: PRE-luciferase in T47D cells in combination with P4; assay type: cell-based; details: 10 μM compound plus 100 nM P4, 24 h
[12] = test system: cannabinoid receptor 1 (CNR1) mRNA; experiment: Quantitative PCR of decidualization gene CNR1 in HESC; assay type: cell-based, human; details: 100 μM, 48 h, with E2 and 8-Br-cAMP

## O=c1cc(-c2ccc(O)cc2)oc2cc(O)cc(O)c12 [Apigenin, apigenin]
[1]
  induction of ZBTB16 mRNA: did not induce
[2]
  development of MPA-induced mammary tumors: prevents the development
[3]
  CC50 at 24 h: > 20 µM
[4]
  induction of PRL expression: induced PRL expression

## COc1ccc(-c2coc3cc(O)cc(O)c3c2=O)cc1 [Biochanin A, biochanin A]
[5]; T47D cells
  PRE-luciferase Fold increase (10μM): 1.0 ± 0.1 fold
[6]; read-out: PR Binding IC50, pure compounds, purified PR
  IC50: > 250 µM
[7]
  CC50: > 20 µM

## O=c1c(-c2ccc(O)cc2)coc2cc(O)ccc12 [Daidzein, daidzein]
[5]; T47D cells
  PRE-luciferase Fold increase (10μM): 1.0 ± 0.4 fold
[6]
  IC50: > 250 µM
[3]; T47D cells
  CC50 at 24 h: > 20 µM

## COc1ccc(-c2coc3cc(O)ccc3c2=O)cc1 [Formononetin, formononetin]
[5]; T47D cells
  PRE-luciferase Fold increase (10μM): 1.5 ± 0.6 fold
[6]
  IC50: > 250 µM
[3]; T47D cells
  CC50 at 24 h: > 20 µM

## O=c1c(-c2ccc(O)cc2)coc2cc(O)cc(O)c12 [Genistein]
[5]; T47D cells
  PRE-luciferase Fold increase (10μM): 2.2 ± 1.1 fold
[6]
  IC50: > 250 µM
[3]
  CC50 at 24 h: > 20 µM

## O=c1c(O)c(-c2ccc(O)cc2)oc2cc(O)cc(O)c12 [Kaempferol, kaempferol]
[8]
  decrease of ovarian cancer incidence: 40%
[1]
  induction of ZBTB16 mRNA: significantly induced
[9]
  downregulation of PRA and PRB protein expression: not observed
[5]; T47D cells
  concentration of highest PRE-luciferase activity from dose response curves: 7.5 µM
  PRE-luciferase Fold increase (10μM): 5.5 ± 1.8 fold
  dose-dependent activation of PRE-luciferase: dose-dependently activated
[5]; likely due to cell death
  concentration above which PRE-luciferase activity started to decrease: > 10 µM
[5]
  compound-induced PRE-luciferase activity in the presence of RU486: significantly abrogate
[10]
  dose-dependent activation of PRE-luciferase: dose-dependently activated
  compound-induced PRE-luciferase in the presence of RU486: significantly inhibited
[6]
  IC50: 1.5 ± 0.4 µM
[11]
  downregulation of P4-induced PRE-luciferase: significantly downregulated
[3]; T47D cells
  CC50 at 24 h: > 20 µM
[4]
  induction of PRL expression: induced PRL expression

## CC(=O)O[C@]1(C(C)=O)CC[C@H]2[C@@H]3C[C@H](C)C4=CC(=O)CC[C@]4(C)[C@H]3CC[C@@]21C [MPA, medroxyprogesterone acetate, reference compound]
[5]; T47D cells, data not shown
  PRE-luciferase activity compared with P4: comparable activity
[10]
  dose-dependent activation of PRE-luciferase: dose-dependently activated
  compound-induced PRE-luciferase in the presence of RU486: significantly inhibited

## O=C1C[C@@H](c2ccc(O)cc2)Oc2cc(O)cc(O)c21 [Naringenin, naringenin]
[1]
  induction of ZBTB16 mRNA: did not induce
[9]
  downregulation of PRA and PRB protein expression: not observed
[5]; 20 μM, T47D cells
  PRE-luciferase activation versus solvent control: reached significance
[5]; T47D cells
  PRE-luciferase Fold increase (10μM): 1.9± 0.4 fold
  dose-dependent activation of PRE-luciferase: dose-dependently activated
[5]
  compound-induced PRE-luciferase activity in the presence of RU486: significantly abrogate
[6]
  IC50: 6.9 ± 1.8 µM
[12]
  induction of CNR1 expression: did not induce CNR1 expression
[3]; T47D cells
  CC50 at 24 h: > 20 µM
[4]
  induction of PRL expression: induced PRL expression

## CC(=O)[C@H]1CC[C@H]2[C@@H]3CCC4=CC(=O)CC[C@]4(C)[C@H]3CC[C@]12C [Progesterone, reference compound]
[9]
  downregulation of PRA and PRB protein expression: downregulation of PRB and more noticeably PRA
[5]; T47D cells
  dose-dependent activation of PRE-luciferase: dose-dependently activated
[5]
  compound-induced PRE-luciferase activity in the presence of RU486: significantly abrogate
